In PubChem BioAssay AID2060606 (Molecular Pharmacology Branch, DTP, NCI, 2025):
Several values for one entry are separate records, joined by “and”; a condition that tells them apart may be missing. Equal values may be shown once.

System: 922993-354-T-J3-PDC complex spheroids, viability, % test/control
Assay: Anticancer human tumor 922993-354-T-J3-PDC patient-derived endometrial carcinoma cell line growth inhibition [CLK]
Conditions: for viability, T/C: stronger effect = lower value
Outline: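 Patient-derived tumor cells grown as complex spheroids with HUVEC endothelial cells and mesenchymal stem cells, treated with drug combinations. Concentrations descend in half-log steps from near clinical Cmax, or from 10 microM if Cmax unknown.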

[1] = curve of first compound, second compound 0.0316 µM
[2] = curve of first compound, second compound 0.1 µM
[3] = curve of first compound, second compound 0.316 µM
[4] = curve of first compound, second compound 1 µM
[5] = curve of first compound, second compound 3.16 µM
[6] = curve of first compound, second compound 10 µM
[7] = second compound 0.0316 µM, first compound 0.0316 µM
[8] = second compound 0.0316 µM, first compound 0.1 µM
[9] = second compound 0.0316 µM, first compound 0.316 µM
[10] = second compound 0.0316 µM, first compound 1 µM
[11] = second compound 0.1 µM, first compound 0.0316 µM
[12] = second compound 0.1 µM, first compound 0.1 µM
[13] = second compound 0.1 µM, first compound 0.316 µM
[14] = second compound 0.1 µM, first compound 1 µM
[15] = second compound 0.316 µM, first compound 0.0316 µM
[16] = second compound 0.316 µM, first compound 0.1 µM
[17] = second compound 0.316 µM, first compound 0.316 µM
[18] = second compound 0.316 µM, first compound 1 µM
[19] = second compound 1 µM, first compound 0.0316 µM
[20] = second compound 1 µM, first compound 0.1 µM
[21] = second compound 1 µM, first compound 0.316 µM
[22] = second compound 1 µM, first compound 1 µM
[23] = second compound 3.16 µM, first compound 0.0316 µM
[24] = second compound 3.16 µM, first compound 0.1 µM
[25] = second compound 3.16 µM, first compound 0.316 µM
[26] = second compound 3.16 µM, first compound 1 µM
[27] = second compound 10 µM, first compound 0.0316 µM
[28] = second compound 10 µM, first compound 0.1 µM
[29] = second compound 10 µM, first compound 0.316 µM
[30] = second compound 10 µM, first compound 1 µM
[31] = second compound 0.0316 µM, first compound 3.16 µM
[32] = second compound 0.0316 µM, first compound 10 µM
[33] = second compound 0.1 µM, first compound 3.16 µM
[34] = second compound 0.1 µM, first compound 10 µM
[35] = second compound 0.316 µM, first compound 3.16 µM
[36] = second compound 0.316 µM, first compound 10 µM
[37] = second compound 1 µM, first compound 3.16 µM
[38] = second compound 1 µM, first compound 10 µM
[39] = second compound 3.16 µM, first compound 3.16 µM
[40] = second compound 3.16 µM, first compound 10 µM
[41] = second compound 10 µM, first compound 3.16 µM
[42] = second compound 10 µM, first compound 10 µM
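Also: spheroids exposed to the agents for 7 days before readout.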

## CCc1c2c(nc3ccc(O)cc13)-c1cc3c(c(=O)n1C2)COC(=O)[C@]3(O)CC + CN1CCN(c2cc(C(=O)Nc3cc4cc(-c5cnn(C)c5)ccc4cn3)ccn2)CC1
[1]
  IC50: 0.0166 µM
[2]
  IC50: 0.0152 µM
[3]
  IC50: < 0.00316 µM
[4]
  IC50: < 0.00316 µM
[5]
  IC50: < 0.00316 µM
[6]
  IC50: < 0.00316 µM
Second compound 0.0316 µM, first compound 0.00316 µM
  viability, T/C: 96.4%
Second compound 0.0316 µM, first compound 0.01 µM
  viability, T/C: 75.1%
[7]
  viability, T/C: 16.3%
[8]
  viability, T/C: 16.1%
[9]
  viability, T/C: 16.8%
[10]
  viability, T/C: 24.9%
Second compound 0.1 µM, first compound 0.00316 µM
  viability, T/C: 84.3%
Second compound 0.1 µM, first compound 0.01 µM
  viability, T/C: 66.9%
[11]
  viability, T/C: 14.1%
[12]
  viability, T/C: 18.8%
[13]
  viability, T/C: 16.2%
[14]
  viability, T/C: 32.3%
Second compound 0.316 µM, first compound 0.00316 µM
  viability, T/C: 27.2%
Second compound 0.316 µM, first compound 0.01 µM
  viability, T/C: 19.2%
[15]
  viability, T/C: 9.9%
[16]
  viability, T/C: 9.85%
[17]
  viability, T/C: 18.8%
[18]
  viability, T/C: 15.8%
Second compound 1 µM, first compound 0.00316 µM
  viability, T/C: 0.1%
Second compound 1 µM, first compound 0.01 µM
  viability, T/C: 0.13%
[19]
  viability, T/C: 1.37%
[20]
  viability, T/C: 0.07%
[21]
  viability, T/C: 0.87%
[22]
  viability, T/C: 0.33%
Second compound 3.16 µM, first compound 0.00316 µM
  viability, T/C: 0.08%
Second compound 3.16 µM, first compound 0.01 µM
  viability, T/C: 0.17%
[23]
  viability, T/C: 0.99%
[24]
  viability, T/C: 1.34%
[25]
  viability, T/C: 1%
[26]
  viability, T/C: 2.82%
Second compound 10 µM, first compound 0.00316 µM
  viability, T/C: 0.12%
Second compound 10 µM, first compound 0.01 µM
  viability, T/C: 0.14%
[27]
  viability, T/C: 0.83%
[28]
  viability, T/C: 0.18%
[29]
  viability, T/C: 0.59%
[30]
  viability, T/C: 2.79%

## CC1(C)CCC(CN2CCN(c3ccc(C(=O)NS(=O)(=O)c4ccc(NCC5CCOCC5)c([N+](=O)[O-])c4)c(Oc4cnc5[nH]ccc5c4)c3)CC2)=C(c2ccc(Cl)cc2)C1 + CNC(=O)c1ccc(Nc2nc(OC3CCCC3)c3c(-c4ccc5nc(C)oc5c4)c[nH]c3n2)c(OC)c1
[1]
  IC50: > 10 µM
[2]
  IC50: > 10 µM
[3]
  IC50: 4.84 µM
[4]
  IC50: < 0.0316 µM
[5]
  IC50: < 0.0316 µM
[6]
  IC50: < 0.0316 µM
[7]
  viability, T/C: 108%
[8]
  viability, T/C: 96%
[9]
  viability, T/C: 102%
[10]
  viability, T/C: 88%
[31]
  viability, T/C: 108%
[32]
  viability, T/C: 66.1%
[11]
  viability, T/C: 108%
[12]
  viability, T/C: 105%
[13]
  viability, T/C: 110%
[14]
  viability, T/C: 104%
[33]
  viability, T/C: 113%
[34]
  viability, T/C: 61.5%
[15]
  viability, T/C: 69.8%
[16]
  viability, T/C: 62.8%
[17]
  viability, T/C: 61.3%
[18]
  viability, T/C: 58.7%
[35]
  viability, T/C: 64.4%
[36]
  viability, T/C: 27.1%
[19]
  viability, T/C: 36.3%
[20]
  viability, T/C: 37.7%
[21]
  viability, T/C: 27.1%
[22]
  viability, T/C: 38.2%
[37]
  viability, T/C: 31.8%
[38]
  viability, T/C: 17.9%
[23]
  viability, T/C: 29.6%
[24]
  viability, T/C: 33.6%
[25]
  viability, T/C: 28.6%
[26]
  viability, T/C: 31.3%
[39]
  viability, T/C: 29%
[40]
  viability, T/C: 15.4%
[27]
  viability, T/C: 31.4%
[28]
  viability, T/C: 25.7%
[29]
  viability, T/C: 26%
[30]
  viability, T/C: 25%
[41]
  viability, T/C: 29.4%
[42]
  viability, T/C: 13.6%

## COC1C=CCC(C)C(C)S(=O)(=O)NC(=O)c2ccc3c(c2)N(CC2CCC21)CC1(CCCc2cc(Cl)ccc21)CO3 (configuration not stated) + CN1CCN(c2cc(C(=O)Nc3cc4cc(-c5cnn(C)c5)ccc4cn3)ccn2)CC1
[1]
  IC50: 5.39 µM
[2]
  IC50: 3.79 µM
[3]
  IC50: < 0.0316 µM
[4]
  IC50: < 0.0316 µM
[5]
  IC50: < 0.0316 µM
[6]
  IC50: < 0.0316 µM
[7]
  viability, T/C: 111%
[8]
  viability, T/C: 107%
[9]
  viability, T/C: 85.1%
[10]
  viability, T/C: 91.4%
[31]
  viability, T/C: 84.9%
[32]
  viability, T/C: 13.6%
[11]
  viability, T/C: 122%
[12]
  viability, T/C: 99.7%
[13]
  viability, T/C: 85.6%
[14]
  viability, T/C: 90.1%
[33]
  viability, T/C: 60.6%
[34]
  viability, T/C: 10.8%
[15]
  viability, T/C: 42.2%
[16]
  viability, T/C: 48%
[17]
  viability, T/C: 31.7%
[18]
  viability, T/C: 21.1%
[35]
  viability, T/C: 13.6%
[36]
  viability, T/C: 7.1%
[19]
  viability, T/C: 0.12%
[20]
  viability, T/C: 0.13%
[21]
  viability, T/C: 0.15%
[22]
  viability, T/C: 0.22%
[37]
  viability, T/C: 0.1%
[38]
  viability, T/C: 0.79%
[23]
  viability, T/C: 0.11%
[24]
  viability, T/C: 0.17%
[25]
  viability, T/C: 1.93%
[26]
  viability, T/C: 0.13%
[39]
  viability, T/C: 2.55%
[40]
  viability, T/C: 0.89%
[27]
  viability, T/C: 0.15%
[28]
  viability, T/C: 1.42%
[29]
  viability, T/C: 1.53%
[30]
  viability, T/C: 0.22%
[41]
  viability, T/C: 0.8%
[42]
  viability, T/C: 2.41%

## CC(Nc1ccc2c(c1)OCCn1cc(N3C(=O)OCC3C(F)F)nc1-2)C(N)=O (configuration not stated)
Compound 0.0316 µM
  viability, T/C: 115% and 99.3%
Compound 0.1 µM
  viability, T/C: 107% and 93.8%
Compound 0.316 µM
  viability, T/C: 84.6% and 77.5%
Compound 1 µM
  viability, T/C: 73.1% and 70.7%
Compound 3.16 µM
  viability, T/C: 28.4% and 49%
Compound 10 µM
  viability, T/C: 22.1% and 34.3%
Curve of compound
  IC50: 1.79 µM and 3.33 µM

## COc1cccc2c1C(=O)c1c(O)c3c(c(O)c1C2=O)CC(O)(C(=O)CO)CC3OC1CC(N)C(O)C(C)O1 (configuration not stated)
Compound 0.0316 µM
  viability, T/C: 92.5% and 100%
Compound 0.1 µM
  viability, T/C: 97.2% and 86%
Compound 0.316 µM
  viability, T/C: 91.5% and 102%
Compound 1 µM
  viability, T/C: 63.7% and 75.1%
Compound 3.16 µM
  viability, T/C: 38.8% and 41.3%
Compound 10 µM
  viability, T/C: 13.7% and 21.8%
Curve of compound
  IC50: 1.91 µM and 2.33 µM

## CC(=O)O[C@H]1C(=O)[C@@]2(C)[C@H]([C@H](OC(=O)c3ccccc3)[C@]3(O)C[C@H](OC(=O)[C@H](O)[C@@H](NC(=O)c4ccccc4)c4ccccc4)C(C)=C1C3(C)C)[C@]1(OC(C)=O)CO[C@@H]1C[C@@H]2O + CNC(=O)c1ccc(Nc2nc(OC3CCCC3)c3c(-c4ccc5nc(C)oc5c4)c[nH]c3n2)c(OC)c1
[1]
  IC50: > 10 µM
[2]
  IC50: > 10 µM
[3]
  IC50: > 10 µM
[4]
  IC50: < 0.0316 µM
[5]
  IC50: < 0.0316 µM
[6]
  IC50: < 0.0316 µM
[7]
  viability, T/C: 113%
[8]
  viability, T/C: 104%
[9]
  viability, T/C: 99.3%
[10]
  viability, T/C: 99.2%
[31]
  viability, T/C: 69.3%
[32]
  viability, T/C: 51%
[11]
  viability, T/C: 101%
[12]
  viability, T/C: 92.1%
[13]
  viability, T/C: 104%
[14]
  viability, T/C: 77.1%
[33]
  viability, T/C: 61.2%
[34]
  viability, T/C: 51.8%
[15]
  viability, T/C: 60.2%
[16]
  viability, T/C: 59%
[17]
  viability, T/C: 66.8%
[18]
  viability, T/C: 73.2%
[35]
  viability, T/C: 79.7%
[36]
  viability, T/C: 68.1%
[19]
  viability, T/C: 42.6%
[20]
  viability, T/C: 46%
[21]
  viability, T/C: 44.7%
[22]
  viability, T/C: 45.9%
[37]
  viability, T/C: 51.1%
[38]
  viability, T/C: 47.1%
[23]
  viability, T/C: 34.6%
[24]
  viability, T/C: 41.4%
[25]
  viability, T/C: 35.8%
[26]
  viability, T/C: 44.3%
[39]
  viability, T/C: 42.6%
[40]
  viability, T/C: 39.9%
[27]
  viability, T/C: 35.4%
[28]
  viability, T/C: 39.2%
[29]
  viability, T/C: 40.2%
[30]
  viability, T/C: 37.4%
[41]
  viability, T/C: 44.9%
[42]
  viability, T/C: 36.1%
